In ChEMBL document CHEMBL1821663, “Synthesis and biological evaluation of glycogen synthase kinase 3 (GSK-3) inhibitors: an fast and atom efficient access to 1-aryl-3-benzylureas” (Bioorg Med Chem Lett, 2011) one finds Activity, IC50 and residual activity data, which are given here for twelve molecules.

The structures appear in SMILES notation.

The species named for data set [1] is Danio rerio. Briefly: Toxicity in 8 to 15 -somite stage zebrafish embryo after 18 to 25 hrs. Conditions: in vivo. It counts as organism-based.
Data set [2] concerns the target Casein kinase I isoform epsilon (Homo sapiens, UniProt P49674). Description: Inhibition of human CKI epsilon activity using Ser/Thr 11 peptide as substrate by FRET assay.
Data set [3] concerns the target Protein kinase C alpha type (Homo sapiens, UniProt P17252). Briefly: Inhibition of human PKCalpha activity using Ser/Thr 7 peptide as substrate by FRET assay.
The target in a further data set is T1, Aurora kinase A (Homo sapiens, UniProt O14965).
T1 sequence (O14965 whole entry): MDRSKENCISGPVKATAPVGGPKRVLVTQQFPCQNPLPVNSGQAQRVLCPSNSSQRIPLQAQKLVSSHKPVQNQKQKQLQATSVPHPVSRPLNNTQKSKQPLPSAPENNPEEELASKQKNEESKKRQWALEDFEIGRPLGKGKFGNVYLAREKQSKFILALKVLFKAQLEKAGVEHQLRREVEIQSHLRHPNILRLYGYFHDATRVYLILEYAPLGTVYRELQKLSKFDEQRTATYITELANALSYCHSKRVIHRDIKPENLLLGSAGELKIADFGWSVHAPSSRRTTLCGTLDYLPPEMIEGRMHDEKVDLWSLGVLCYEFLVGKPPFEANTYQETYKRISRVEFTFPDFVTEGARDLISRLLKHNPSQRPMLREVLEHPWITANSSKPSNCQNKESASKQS
Briefly: Inhibition of human AURKA activity using Ser/Thr 1 peptide as substrate by FRET assay.

Data set [4] concerns the target T2, Glycogen synthase kinase-3 beta (Homo sapiens, UniProt P49841). Description: Inhibition of GSK3-beta assessed as [32P]gamma-ATP incorporation into substrate at 10 uM after 15 mins by gamma counting; values are per cent of control.
Target sequence in this assay (P49841 whole entry, looked up): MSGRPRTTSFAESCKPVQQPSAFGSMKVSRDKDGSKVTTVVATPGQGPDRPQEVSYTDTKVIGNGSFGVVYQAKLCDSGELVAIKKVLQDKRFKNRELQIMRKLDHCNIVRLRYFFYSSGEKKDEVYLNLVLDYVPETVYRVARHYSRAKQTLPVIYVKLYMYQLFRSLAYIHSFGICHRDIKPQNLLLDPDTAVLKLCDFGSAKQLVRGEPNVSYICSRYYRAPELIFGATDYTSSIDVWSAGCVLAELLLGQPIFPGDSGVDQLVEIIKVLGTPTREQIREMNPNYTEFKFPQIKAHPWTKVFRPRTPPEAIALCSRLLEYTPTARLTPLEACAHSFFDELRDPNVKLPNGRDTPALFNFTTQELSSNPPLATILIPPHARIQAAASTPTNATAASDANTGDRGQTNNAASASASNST
Data set [5] deals with T2, Glycogen synthase kinase-3 beta. Description: Inhibition of human GSK3-beta activity using Ser/Thr 9 peptide as substrate by FRET assay.
Target sequence in this assay (P49841 whole entry): as the sequence (P49841 whole entry, looked up) above
Data set [6] has the same target. Description: Inhibition of GSK3-beta assessed as [32P]gamma-ATP incorporation into substrate at 1 uM after 15 mins by gamma counting; values are per cent of control.
Target sequence in this assay (P49841 whole entry, looked up): as above
For data set [7], the species on record is Danio rerio. Briefly: Toxicity in 8 to 15 -somite stage zebrafish embryo assessed as deformation in fish tail formation at 100 uM after 18 to 25 hrs. The format is organism-based. Conditions: in vivo.
For data set [8], the species on record is Danio rerio. Briefly: Toxicity in 8 to 15 -somite stage zebrafish embryo assessed as swimming movements in circles at 100 uM after 18 to 25 hrs. The format is organism-based. Conditions: in vivo.
For data set [9], the target named is Cyclin-dependent kinase 5/CDK5 activator 1 (Homo sapiens, UniProt Q00535). Briefly: Inhibition of human CDK5/p35 activity using Ser/Thr 12 peptide as substrate by FRET assay. It counts as protein-complex assay.
Cyclin-dependent kinase 5/CDK5 activator 1, sequence (Q00535 whole entry): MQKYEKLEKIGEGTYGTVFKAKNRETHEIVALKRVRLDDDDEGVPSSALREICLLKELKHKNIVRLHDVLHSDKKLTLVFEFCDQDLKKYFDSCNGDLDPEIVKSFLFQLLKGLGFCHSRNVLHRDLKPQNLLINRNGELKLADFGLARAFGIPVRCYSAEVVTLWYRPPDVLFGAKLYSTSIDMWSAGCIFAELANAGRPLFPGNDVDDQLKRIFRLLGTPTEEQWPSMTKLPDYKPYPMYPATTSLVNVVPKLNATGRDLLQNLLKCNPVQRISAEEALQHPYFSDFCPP
Cyclin-dependent kinase 5/CDK5 activator 1, sequence (Q15078 whole entry, further chain): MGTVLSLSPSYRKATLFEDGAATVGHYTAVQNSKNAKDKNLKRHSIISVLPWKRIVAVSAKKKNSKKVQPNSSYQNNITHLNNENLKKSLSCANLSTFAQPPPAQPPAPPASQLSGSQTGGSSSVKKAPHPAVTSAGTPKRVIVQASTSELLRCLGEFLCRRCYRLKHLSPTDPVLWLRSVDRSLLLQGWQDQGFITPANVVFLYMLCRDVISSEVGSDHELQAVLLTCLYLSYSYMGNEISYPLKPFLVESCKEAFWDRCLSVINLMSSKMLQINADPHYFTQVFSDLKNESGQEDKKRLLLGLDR
In data set [10] the target is Glycogen synthase kinase-3 alpha (Homo sapiens, UniProt P49840). Description: Inhibition of human GSK3alpha activity using Ser/Thr 11 peptide as substrate by FRET assay.
Glycogen synthase kinase-3 alpha, sequence (P49840 whole entry): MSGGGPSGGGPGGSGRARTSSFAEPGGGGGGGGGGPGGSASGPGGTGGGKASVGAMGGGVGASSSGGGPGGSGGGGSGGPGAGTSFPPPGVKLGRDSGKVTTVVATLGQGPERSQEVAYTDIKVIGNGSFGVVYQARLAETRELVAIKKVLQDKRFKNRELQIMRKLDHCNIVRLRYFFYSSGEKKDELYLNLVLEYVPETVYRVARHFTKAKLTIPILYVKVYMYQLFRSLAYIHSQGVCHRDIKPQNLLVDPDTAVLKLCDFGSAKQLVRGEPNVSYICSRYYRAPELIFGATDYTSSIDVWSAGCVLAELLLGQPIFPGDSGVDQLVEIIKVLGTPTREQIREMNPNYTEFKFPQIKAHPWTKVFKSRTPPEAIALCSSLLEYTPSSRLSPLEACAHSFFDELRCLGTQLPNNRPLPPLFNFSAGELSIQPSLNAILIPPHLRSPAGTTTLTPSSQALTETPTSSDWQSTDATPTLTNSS
The species entered for data set [11] is Danio rerio. Briefly: Toxicity in 8 to 15 -somite stage zebrafish embryo assessed as deformation in fish tail formation at 25 uM after 18 to 25 hrs. Conditions: in vivo. The format is organism-based.
For data set [12], the species on record is Danio rerio. Description: Toxicity in 8 to 15 -somite stage zebrafish embryo assessed as swimming movements in circles at 25 uM after 18 to 25 hrs. Conditions: in vivo. The format is organism-based.

Casein kinase I isoform epsilon, sequence (P49674 whole entry, canonical isoform): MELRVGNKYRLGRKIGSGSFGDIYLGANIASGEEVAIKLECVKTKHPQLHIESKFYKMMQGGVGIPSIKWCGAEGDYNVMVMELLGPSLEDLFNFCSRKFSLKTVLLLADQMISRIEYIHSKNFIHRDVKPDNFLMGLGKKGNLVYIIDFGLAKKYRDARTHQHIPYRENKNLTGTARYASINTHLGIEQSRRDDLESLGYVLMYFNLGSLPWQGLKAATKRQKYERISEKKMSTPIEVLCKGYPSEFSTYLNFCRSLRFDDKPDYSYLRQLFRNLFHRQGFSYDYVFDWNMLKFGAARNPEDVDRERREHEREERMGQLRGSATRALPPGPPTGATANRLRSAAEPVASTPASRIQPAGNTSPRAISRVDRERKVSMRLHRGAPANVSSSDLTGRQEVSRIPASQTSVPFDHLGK

As for `COc1ccc(CNC(=O)Nc2cc(-c3nnn[nH]3)ccn2)cc1`, the results for the Activity result in the data set listed under Danio rerio [1], in the data set filed under Danio rerio [7] and in the data set filed under Danio rerio [8] were “Non-toxic”, “Toxic” and “Toxic”, respectively. For the same molecule, the IC50 in [2] is greater than 100 µM; in data set [3], greater than 100 µM; on Aurora kinase A, greater than 100 µM; in data set [5] it was 0.51 µM; in data set [9], greater than 100 µM; in [10], 0.37 µM. Besides, the residual activity in data set [4] worked out at 24%; in [6], 82%.
As to `COc1ccc(CNC(=O)Nc2nc3ccc(-c4nnn[nH]4)cc3s2)cc1`, the results for the Activity result in the data set filed under Danio rerio [1], in the data set listed under Danio rerio [7] and in the data set filed under Danio rerio [8] were “Non-toxic”, “Toxic” and “Toxic”, respectively. Besides, the IC50 in data set [2] is 15.3 µM; in [3], 24.2 µM; against Aurora kinase A, 4.8 µM; in [5], 0.14 µM; in data set [9], 26.4 µM; in [10], 0.13 µM. The values for the residual activity in data set [4] and in data set [6] were 18% and 69%, respectively.
Regarding `COc1ccc(CNC(=O)Nc2cc(-c3ccccc3OC)ccn2)cc1`, the residual activity stood at 32% in [4] and 91% in data set [6].
Take `COc1ccc(CNC(=O)Nc2ncc([N+](=O)[O-])s2)cc1`: the Activity result in the data set filed under Danio rerio [1] is “Toxic”. For the same molecule, the IC50 in [2] and in data set [3] was greater than 100 µM throughout. For the same molecule, the residual activity in data set [4] stood at 20%; in [6] it was 55%.
With `COc1ccc(CNC(=O)Nc2nc3ccc([N+](=O)[O-])cc3s2)cc1`, the IC50 in data set [2] is greater than 100 µM; in data set [3] it was greater than 100 µM; against Aurora kinase A it was greater than 100 µM; in data set [5] it was 3.64 µM; in [9] it was greater than 100 µM; in [10] it was 0.22 µM.
Consider `Nc1nc(NCCNc2ncc(-c3ncc[nH]3)c(-c3ccc(Cl)cc3Cl)n2)ccc1[N+](=O)[O-]`, for which the Activity result in the data set filed under Danio rerio [1] is “Non-toxic”; in the data set listed under Danio rerio [11] it was “Toxic”; in the data set listed under Danio rerio [12] it was “Toxic”.
`CCOC(=O)c1sc(NC(=O)NCc2ccc(F)cc2)nc1C`: the Activity result in the data set listed under Danio rerio [1] is given as “Non-toxic”.
Take `COc1ccc(CNC(=O)Nc2ccc([N+](=O)[O-])cn2)cc1`: the figures for the residual activity in data set [4] and in data set [6] were 31% and 75%, respectively.
On to `COc1ccc(CNC(=O)Nc2cc(-c3cccnc3F)ccn2)cc1`, for which the residual activity in data set [4] turned out to be 12%. Half-maximal inhibition in data set [5] (IC50) required 0.098 µM.
Consider `COc1ccc(CNC(=O)Nc2nc3ccc(C#N)cc3s2)cc1`, for which the values for the residual activity in data set [4] and in data set [6] were 24% and 57%, respectively.
Regarding `COc1ccc(CNC(=O)Nc2ccc(C#N)cn2)cc1`, the residual activity is 40% in data set [4] and 79% in data set [6].
With `COc1ccc(CNC(=O)Nc2cc(C#N)ccn2)cc1`, the IC50 in [2] was greater than 100 µM; in [3] it was greater than 100 µM; against Aurora kinase A it was greater than 100 µM; in data set [5] it was 1.43 µM; in [9], greater than 100 µM; in [10], 1.12 µM. Moreover, the residual activity stood at 42% in [4] and 101% in data set [6].

The term IC50 denotes the concentration that gives 50% inhibition. The term residual activity denotes the signal under treatment as a percentage of the control signal.
